Key:
Glutamate receptor 3 [1] = target: T1, Glutamate receptor 3 (Homo sapiens, UniProt P42263); test: Antagonist activity at closed state of GluA3 (unknown origin) assessed as reduction in glutamate-induced current response in presence of 100 uM glutamate
Glutamate receptor 1 [2] = target: T2, Glutamate receptor 1 (Homo sapiens, UniProt P42261); test: Antagonist activity at open state of GluA1 (unknown origin) assessed as reduction in glutamate-induced current response in presence of 2 mM glutamate relative to control
T2 sequence (P42261 whole entry): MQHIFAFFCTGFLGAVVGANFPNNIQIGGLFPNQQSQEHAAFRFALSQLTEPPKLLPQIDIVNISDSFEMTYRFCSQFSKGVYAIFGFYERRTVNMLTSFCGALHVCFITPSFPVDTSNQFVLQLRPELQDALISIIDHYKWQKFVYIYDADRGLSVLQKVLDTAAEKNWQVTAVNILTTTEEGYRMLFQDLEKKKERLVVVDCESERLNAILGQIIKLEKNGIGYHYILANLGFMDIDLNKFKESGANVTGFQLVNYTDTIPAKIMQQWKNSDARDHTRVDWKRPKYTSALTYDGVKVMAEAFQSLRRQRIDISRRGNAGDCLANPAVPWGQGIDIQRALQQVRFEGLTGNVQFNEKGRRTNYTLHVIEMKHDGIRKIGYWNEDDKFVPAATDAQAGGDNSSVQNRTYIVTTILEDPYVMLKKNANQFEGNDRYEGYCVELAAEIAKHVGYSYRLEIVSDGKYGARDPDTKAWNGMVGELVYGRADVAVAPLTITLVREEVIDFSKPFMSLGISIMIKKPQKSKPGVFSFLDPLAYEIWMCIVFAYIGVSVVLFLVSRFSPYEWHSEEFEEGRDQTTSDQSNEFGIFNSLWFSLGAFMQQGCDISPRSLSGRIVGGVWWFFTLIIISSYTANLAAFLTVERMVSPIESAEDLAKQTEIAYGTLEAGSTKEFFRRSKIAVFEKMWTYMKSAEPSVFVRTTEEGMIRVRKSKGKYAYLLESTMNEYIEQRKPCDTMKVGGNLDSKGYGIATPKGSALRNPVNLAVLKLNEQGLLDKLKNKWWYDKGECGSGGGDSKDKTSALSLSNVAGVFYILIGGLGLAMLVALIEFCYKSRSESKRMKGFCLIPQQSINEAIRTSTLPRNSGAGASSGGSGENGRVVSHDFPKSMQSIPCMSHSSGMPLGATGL

Glutamate receptor 4 [3] = target: T3, Glutamate receptor 4 (Homo sapiens, UniProt P48058); test: Antagonist activity at open state of GluA4 (unknown origin) assessed as reduction in glutamate-induced current response in presence of 3 mM glutamate
T3 sequence (P48058 whole entry, canonical isoform): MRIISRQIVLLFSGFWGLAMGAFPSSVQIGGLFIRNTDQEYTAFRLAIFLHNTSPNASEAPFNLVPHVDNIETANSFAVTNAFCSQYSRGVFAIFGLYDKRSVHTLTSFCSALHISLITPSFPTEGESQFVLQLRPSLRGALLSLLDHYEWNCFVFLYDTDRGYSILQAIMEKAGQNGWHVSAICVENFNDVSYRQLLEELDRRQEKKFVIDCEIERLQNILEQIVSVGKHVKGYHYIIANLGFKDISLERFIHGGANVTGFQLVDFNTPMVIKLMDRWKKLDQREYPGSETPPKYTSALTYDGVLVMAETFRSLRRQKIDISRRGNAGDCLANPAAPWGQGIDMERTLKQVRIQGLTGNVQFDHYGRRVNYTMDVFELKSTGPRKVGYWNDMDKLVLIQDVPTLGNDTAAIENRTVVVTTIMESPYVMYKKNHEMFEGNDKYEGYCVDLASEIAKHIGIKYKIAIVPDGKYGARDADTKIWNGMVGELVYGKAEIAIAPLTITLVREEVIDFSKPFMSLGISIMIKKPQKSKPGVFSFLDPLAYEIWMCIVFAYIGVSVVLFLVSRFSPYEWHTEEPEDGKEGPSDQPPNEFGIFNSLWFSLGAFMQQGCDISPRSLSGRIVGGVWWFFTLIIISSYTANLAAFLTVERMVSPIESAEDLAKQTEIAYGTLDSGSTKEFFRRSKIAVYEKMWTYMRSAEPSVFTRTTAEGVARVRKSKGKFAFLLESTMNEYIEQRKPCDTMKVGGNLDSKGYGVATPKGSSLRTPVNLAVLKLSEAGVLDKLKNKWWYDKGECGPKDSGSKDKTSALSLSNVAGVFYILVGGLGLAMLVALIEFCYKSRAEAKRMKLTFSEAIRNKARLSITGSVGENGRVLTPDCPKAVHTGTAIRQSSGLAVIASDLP

Glutamate receptor 2 [4] = target: T4, Glutamate receptor 2 (Homo sapiens, UniProt P42262); test: Antagonist activity at closed state of GluA2Qflip isoform (unknown origin) expressed in HEK293 cells assessed as reduction in glutamate-induced current response at 2.5 uM in presence of 0.1 mM glutamate by whole cell assay relative to control; assay type: cell-based
T4 sequence (P42262 whole entry, canonical isoform): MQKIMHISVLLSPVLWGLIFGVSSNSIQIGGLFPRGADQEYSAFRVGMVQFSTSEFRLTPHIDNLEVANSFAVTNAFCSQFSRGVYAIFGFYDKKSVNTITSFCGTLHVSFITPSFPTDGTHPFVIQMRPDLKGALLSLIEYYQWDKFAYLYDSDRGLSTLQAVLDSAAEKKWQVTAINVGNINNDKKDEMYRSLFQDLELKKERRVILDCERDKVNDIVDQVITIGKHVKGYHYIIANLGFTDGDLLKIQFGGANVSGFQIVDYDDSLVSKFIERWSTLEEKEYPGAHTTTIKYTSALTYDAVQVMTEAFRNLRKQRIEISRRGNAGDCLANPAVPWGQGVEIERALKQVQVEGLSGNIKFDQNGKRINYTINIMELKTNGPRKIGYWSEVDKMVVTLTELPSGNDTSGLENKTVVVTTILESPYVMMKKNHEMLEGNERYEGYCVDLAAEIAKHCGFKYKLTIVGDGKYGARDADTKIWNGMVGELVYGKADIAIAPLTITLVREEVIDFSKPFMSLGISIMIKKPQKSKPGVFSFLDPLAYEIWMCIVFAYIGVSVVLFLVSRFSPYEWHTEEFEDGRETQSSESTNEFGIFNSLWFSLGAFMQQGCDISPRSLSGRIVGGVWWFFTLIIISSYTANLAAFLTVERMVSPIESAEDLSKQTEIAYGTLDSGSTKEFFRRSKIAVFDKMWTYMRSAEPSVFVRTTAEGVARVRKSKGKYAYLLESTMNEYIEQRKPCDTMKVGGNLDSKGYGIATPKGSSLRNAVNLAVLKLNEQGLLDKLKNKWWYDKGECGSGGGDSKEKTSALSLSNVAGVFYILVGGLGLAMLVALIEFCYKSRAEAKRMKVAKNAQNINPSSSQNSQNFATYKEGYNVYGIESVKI

Glutamate receptor 1 [5] = target: T2, Glutamate receptor 1; test: Antagonist activity at closed state of GluA1 (unknown origin) assessed as reduction in glutamate-induced current response in presence of 40 to 50 uM glutamate relative to control
Glutamate receptor 4 [6] = target: T3, Glutamate receptor 4; test: Antagonist activity at open state of GluA4 (unknown origin) assessed as reduction in glutamate-induced current response in presence of 3 mM glutamate relative to control
Glutamate receptor 1 [7] = target: T2, Glutamate receptor 1; test: Antagonist activity at open state of GluA1 (unknown origin) assessed as reduction in glutamate-induced current response in presence of 2 mM glutamate
Glutamate receptor 3 [8] = target: T1, Glutamate receptor 3; test: Antagonist activity at open state of GluA3 (unknown origin) assessed as reduction in glutamate-induced current response in presence of 3 mM glutamate relative to control
Glutamate receptor 4 [9] = target: T3, Glutamate receptor 4; test: Antagonist activity at closed state of GluA4 (unknown origin) assessed as reduction in glutamate-induced current response in presence of 100 uM glutamate
Glutamate receptor 2 [10] = target: T4, Glutamate receptor 2; test: Antagonist activity at open state of GluA2Qflip isoform (unknown origin) expressed in HEK293 cells assessed as reduction in glutamate-induced current response in presence of 3 mM glutamate by whole cell assay relative to control; assay type: cell-based
Glutamate receptor 4 [11] = target: T3, Glutamate receptor 4; test: Antagonist activity at closed state of GluA4 (unknown origin) assessed as reduction in glutamate-induced current response in presence of 100 uM glutamate relative to control
Glutamate receptor 2 [12] = target: T4, Glutamate receptor 2; test: Antagonist activity at open state of GluA2Qflip isoform (unknown origin) expressed in HEK293 cells assessed as reduction in glutamate-induced current response at 2.5 uM in presence of 3 mM glutamate by whole cell assay relative to control; assay type: cell-based
Glutamate receptor 1 [13] = target: T2, Glutamate receptor 1; test: Antagonist activity at closed state of GluA1 (unknown origin) assessed as reduction in glutamate-induced current response in presence of 40 to 50 uM glutamate
Glutamate receptor 3 [14] = target: T1, Glutamate receptor 3; test: Antagonist activity at open state of GluA3 (unknown origin) assessed as reduction in glutamate-induced current response in presence of 3 mM glutamate
Glutamate receptor 3 [15] = target: T1, Glutamate receptor 3; test: Antagonist activity at closed state of GluA3 (unknown origin) assessed as reduction in glutamate-induced current response in presence of 100 uM glutamate relative to control
Glutamate receptor 2 [16] = target: T4, Glutamate receptor 2; test: Antagonist activity at closed state of GluA2Qflip isoform (unknown origin) expressed in HEK293 cells assessed as reduction in glutamate-induced current response in presence of 0.1 mM glutamate by whole cell assay; assay type: cell-based
Glutamate receptor 2 [17] = target: T4, Glutamate receptor 2; test: Antagonist activity at closed state of GluA2Qflip isoform (unknown origin) expressed in HEK293 cells assessed as reduction in glutamate-induced current response at 1 uM in presence of 0.1 mM glutamate by whole cell assay relative to control; assay type: cell-based
Glutamate receptor 2 [18] = target: T4, Glutamate receptor 2; test: Antagonist activity at open state of GluA2Qflip isoform (unknown origin) expressed in HEK293 cells assessed as reduction in glutamate-induced current response at 1 uM in presence of 3 mM glutamate by whole cell assay relative to control; assay type: cell-based
Glutamate receptor 2 [19] = target: T4, Glutamate receptor 2; test: Antagonist activity at open state of GluA2Qflip isoform (unknown origin) expressed in HEK293 cells assessed as reduction in glutamate-induced current response at 10 uM in presence of 3 mM glutamate by whole cell assay relative to control; assay type: cell-based
Glutamate receptor 2 [20] = target: T4, Glutamate receptor 2; test: Antagonist activity at closed state of GluA2Qflip isoform (unknown origin) expressed in HEK293 cells assessed as reduction in glutamate-induced current response at 10 uM in presence of 0.1 mM glutamate by whole cell assay relative to control; assay type: cell-based
Glutamate receptor 2 [21] = target: T4, Glutamate receptor 2; test: Antagonist activity at open state of GFP-tagged GluA2Qflip isoform (unknown origin) expressed in HEK293S cells assessed as reduction in glutamate-induced current response in presence of 3 mM glutamate by whole cell assay relative to control; assay type: cell-based
Glutamate receptor 2 [22] = target: T4, Glutamate receptor 2; test: Antagonist activity at closed state of GFP-tagged GluA2Qflip isoform (unknown origin) expressed in HEK293S cells assessed as reduction in glutamate-induced current response in presence of 0.1 mM glutamate by whole cell assay; assay type: cell-based

T1 sequence (P42263 whole entry): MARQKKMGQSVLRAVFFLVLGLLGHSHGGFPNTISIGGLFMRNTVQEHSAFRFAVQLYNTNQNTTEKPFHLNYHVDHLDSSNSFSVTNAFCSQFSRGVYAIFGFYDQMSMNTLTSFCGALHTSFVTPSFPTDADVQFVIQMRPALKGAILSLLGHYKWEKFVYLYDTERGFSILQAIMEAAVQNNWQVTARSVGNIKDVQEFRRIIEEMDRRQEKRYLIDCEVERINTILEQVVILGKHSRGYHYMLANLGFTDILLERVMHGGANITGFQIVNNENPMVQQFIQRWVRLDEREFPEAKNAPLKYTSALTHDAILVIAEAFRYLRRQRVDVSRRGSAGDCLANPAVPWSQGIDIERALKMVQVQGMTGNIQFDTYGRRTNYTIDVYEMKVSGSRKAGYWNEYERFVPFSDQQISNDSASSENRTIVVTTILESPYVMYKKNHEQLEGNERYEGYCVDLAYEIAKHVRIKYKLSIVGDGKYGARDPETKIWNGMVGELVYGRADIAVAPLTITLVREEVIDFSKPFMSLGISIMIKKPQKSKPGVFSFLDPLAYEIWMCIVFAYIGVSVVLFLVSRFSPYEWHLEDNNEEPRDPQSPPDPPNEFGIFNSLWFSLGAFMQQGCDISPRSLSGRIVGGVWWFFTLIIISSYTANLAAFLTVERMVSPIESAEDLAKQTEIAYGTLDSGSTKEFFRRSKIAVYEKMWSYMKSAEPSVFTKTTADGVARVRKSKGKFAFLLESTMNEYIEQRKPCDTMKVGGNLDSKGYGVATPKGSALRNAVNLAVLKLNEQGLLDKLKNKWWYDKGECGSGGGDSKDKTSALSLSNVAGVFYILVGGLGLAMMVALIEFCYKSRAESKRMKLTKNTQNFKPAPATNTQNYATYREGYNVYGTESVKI

SMILES: Cc1cc(C2=NN(CC3CC(Br)=NO3)C(=O)Cc3cc4c(cc32)OCCO4)cc(C)c1N (stereo not drawn)
- Ki (Glutamate receptor 3 [1]): 27.8 µM
- fold change (FC) (Glutamate receptor 1 [2]): 1.39
- Ki (Glutamate receptor 4 [3]): 11.4 µM
- fold change (FC) (Glutamate receptor 2 [4]): 1.46
- fold change (FC) (Glutamate receptor 1 [5]): 1.19
- fold change (FC) (Glutamate receptor 4 [6]): 1.22
- Ki (Glutamate receptor 1 [7]): 6.4 µM
- fold change (FC) (Glutamate receptor 3 [8]): 1.18
- Ki (Glutamate receptor 4 [9]): 7.4 µM
- Ki (Glutamate receptor 2 [10]): Not Active
- fold change (FC) (Glutamate receptor 4 [11]): 1.34
- fold change (FC) (Glutamate receptor 2 [12]): 0.95
- Ki (Glutamate receptor 1 [13]): 13.2 µM
- Ki (Glutamate receptor 3 [14]): 13.9 µM
- fold change (FC) (Glutamate receptor 3 [15]): 1.09
- Ki (Glutamate receptor 2 [16]): 5 µM

SMILES: Cc1cc(C2=NN(C3CC(Br)=NO3)C(=O)Cc3cc4c(cc32)OCCO4)cc(C)c1N (stereo not drawn)
- fold change (FC) (Glutamate receptor 2 [17]): 1.21
- fold change (FC) (Glutamate receptor 2 [18]): 1.24

SMILES: Cc1cc(C2=NN(CC3CC(Br)=NO3)C(=O)Cc3cc4c(cc32)OCCO4)ccc1N (stereo not drawn)
- Ki (Glutamate receptor 2 [10]; read-out: Ki): 50 µM
- fold change (FC) (Glutamate receptor 2 [19]): 1.2
- fold change (FC) (Glutamate receptor 2 [20]): 1.23
- Ki (Glutamate receptor 2 [16]): 50 µM

SMILES: Cc1cc(C2=NNC(=O)Cc3cc4c(cc32)OCCO4)cc(C)c1N
- Ki (Glutamate receptor 2 [21]): 164 µM
- Ki (Glutamate receptor 2 [22]): 94 µM

SMILES: Nc1ccc(C2=NNC(=O)Cc3cc4c(cc32)OCCO4)cc1
- Ki (Glutamate receptor 2 [21]): 33 µM
- Ki (Glutamate receptor 2 [22]): 21 µM

SMILES: Nc1ccc(C2=NN(CC3CC(Br)=NO3)C(=O)Cc3cc4c(cc32)OCCO4)cc1 (stereo not drawn)
- fold change (FC) (Glutamate receptor 2 [17]): 1.44
- fold change (FC) (Glutamate receptor 2 [18]): 1.09

SMILES: CC1=NN=C(c2ccc(N)cc2)c2cc3c(cc2C1)OCO3 [GYKI-52466]
- Ki (Glutamate receptor 2 [21]): 5 µM
- Ki (Glutamate receptor 2 [22]): 4 µM

SMILES: Cc1cc(C2=NNC(=O)Cc3cc4c(cc32)OCCO4)ccc1N
- Ki (Glutamate receptor 2 [21]): 9 µM
- Ki (Glutamate receptor 2 [22]): 4 µM

SMILES: Nc1ccc(C2=NN(C3CC(Br)=NO3)C(=O)Cc3cc4c(cc32)OCCO4)cc1 (stereo not drawn)
- fold change (FC) (Glutamate receptor 2 [4]): 1.75
- Ki (Glutamate receptor 2 [10]; read-out: Ki): 14 µM
- fold change (FC) (Glutamate receptor 2 [12]): 1.18
- Ki (Glutamate receptor 2 [16]): 3 µM

SMILES: Cc1cc(C2=NN(C3CC(Br)=NO3)C(=O)Cc3cc4c(cc32)OCCO4)ccc1N (stereo not drawn)
- fold change (FC) (Glutamate receptor 2 [17]): 1.01
- fold change (FC) (Glutamate receptor 2 [18]): 1.16

Reference: ChEMBL document CHEMBL4052654, “Development of novel N-3-bromoisoxazolin-5-yl substituted 2,3-benzodiazepines as noncompetitive AMPAR antagonists” (Bioorg Med Chem, 2017)
